Test results from ChEMBL document CHEMBL1157981, “Goniotriocin and (2,4-cis- and -trans)-xylomaticinones, bioactive annonaceous acetogenins from Goniothalamus giganteus” (J Nat Prod, 1999).
≈ marks a conversion by molar mass, not a printed value.

Legend:
[1] = Toxicity in brine shrimp; format: organism-based; details: artemia, in vivo
Aedes aegypti = assay: Pesticidal activity against yellow fever mosquito larvae by microtiter plate assay; format: functional
A549 = assay: Cytotoxicity against human A549 cells by MTT assay; format: functional; details: read-out: ED50 (the source's name)
MCF7 = assay: Cytotoxicity against human MCF7 cells by MTT assay; format: functional; details: read-out: ED50 (the source's name)
HT-29 = assay: Cytotoxicity against human HT-29 cells by MTT assay; format: functional; details: read-out: ED50 (the source's name)
A498 = assay: Cytotoxicity against human A-498 cells by MTT assay; format: functional; details: read-out: ED50 (the source's name)
PC-3 = assay: Cytotoxicity against human PC-3 cells by MTT assay; format: functional; details: read-out: ED50 (the source's name)
MIA PaCa-2 = assay: Cytotoxicity against human PaCa2 cells by MTT assay; format: functional; details: read-out: ED50 (the source's name)

Row | Compound | LC50 [1] [µg/mL] | LC50 (Aedes aegypti) [µg/mL] | EC50 (A549) [µg/mL] | EC50 (MCF7) [µg/mL] | EC50 (HT-29) [µg/mL] | EC50 (A498) [µg/mL] | EC50 (PC-3) [µg/mL] | EC50 (MIA PaCa-2) [µg/mL]
1 | CCCCCCCCCCCCC(=O)C[C@@H]1C[C@@H](O)[C@@H](CC[C@H](O)[C@@H]2CC[C@@H](CCCCCC(O)CC3=CC(C)OC3=O)O2)O1 (stereo not given in full) [GONIOTRICIN] | 2.7 (≈ 4.24 µM) | 3.6 (≈ 5.65 µM) | 0.033 (≈ 0.0518 µM) | 0.0033 (≈ 0.00518 µM) | 0.0012 (≈ 0.00188 µM) | 0.0011 (≈ 0.00173 µM) | 0.26 (≈ 0.408 µM) | 1.4 (≈ 2.2 µM)
2 | C=C(C)[C@H]1Cc2c(ccc3c2O[C@@H]2COc4cc(OC)c(OC)cc4[C@@H]2C3=O)O1 [ROTENONE] | – | 0.3 (≈ 0.761 µM) | – | – | – | – | – | –
3 | COc1cccc2c1C(=O)c1c(O)c3c(c(O)c1C2=O)C[C@@](O)(C(=O)CO)C[C@@H]3O[C@H]1C[C@H](N)[C@H](O)[C@H](C)O1 [DOXORUBICIN] | – | – | 0.017 (≈ 0.0313 µM) | 0.21 (≈ 0.386 µM) | 0.031 (≈ 0.057 µM) | 0.019 (≈ 0.035 µM) | 0.062 (≈ 0.114 µM) | 0.023 (≈ 0.0423 µM)
